Counter-ions that a name gives are not always drawn. Like-named read-outs stand apart in the source and are kept apart here.
What was measured:
[1] = test system: Carageenan-induced paw edema; experiment: Carageenan-induced paw edema model; format: in vivo, female ddy mice; conditions: Mus musculus; po, mice, 1 h before carageenan; paw volume 3 h later
Method: [II] Carageenan-induced paw edema model (in vivo)
Female ddy mice (6-8 weeks old) were used. […] One hour after the administration, 50 μL of 1% carageenan dissolved in physiological saline was intradermally injected into the right foot pad. Three hours later, the volume of the right paw was measured and compared with that measured before the carageenan injection.
(§1) In both [II] and [III], the test compounds were dissolved in DMSO and used upon dilution with olive oil (final concentration of DMSO 1%).

[2] = test system: Sheep red blood cell-induced delayed type hypersensitivity; experiment: Sheep red blood cell (SRBC)-induced delayed type hypersensitivity (DTH) model; format: in vivo, female ddy mice; conditions: Mus musculus, Erythrocyte; po, mice, 1 h before SRBC challenge; paw volume 24 h after induction
Method: [III] Sheep red blood cell (SRBC)-induced delayed type hypersensitivity (DTH) model (in vivo)
Female ddy mice (6-8 weeks old) were used. On day 1, SRBC 10^7 cells were intradermally injected into the left foot pad of the mice (40 μl/foot) to immunize the mice. Five days later, the test compounds dissolved in olive oil were orally administered at 10 ml/kg. One hour later, SRBC 10^8 cells were intradermally injected into the right foot pad to induce the response. Twenty-four hours after the induction, the volume of the both paws was measured, and edema ratio was calculated by […].
as §1

[3] = target: T1, cannabinoid central type (CB1) receptor (Rattus norvegicus, UniProt P20272); experiment: Binding assay, cannabinoid central type receptor (CB1), rat cerebellar membrane fraction, [3H]Win55212-2
T1 construct: rat cerebellar membrane fraction and spleen cells were respectively used; from tissue; host or cells: rat cerebellar membrane fraction (male SD rats, 7-9 weeks old)
Method: (§2) [I] Binding Assay (in vitro)
(§3) As the sample rich in cannabinoid central type (CB1) and peripheral type (CB2) receptors, rat cerebellar membrane fraction and spleen cells were respectively used (male SD rats, 7-9 weeks old). A sample (cerebellar membrane fraction: 50 μg/ml or spleen cells: 1×10^7 cells/ml), labeled ligand ([^3 H]Win55212-2, 2 nM) and unlabeled Win55212-2 or a test compound were plated in round bottom 24 well plates, and incubated at 30° C. for 90 min in the case of cerebellar membrane fraction, and at 4° C. for 360 min in the case of spleen cells. As the assay buffer, 50 mM Tris solution containing 0.2% BSA was used for cerebellar membrane fraction, and 50 mM Tris-HBSS containing 0.2% BSA was used for spleen cells. After incubation, the samples were filtrated through a filter (Packard, Unifilter 24 GF/B) and dried. A scintillation solution (Packard, Microsint-20) was added, and the radioactivity of the samples was determined (Packard, Top count A9912V). The non-specific binding was determined by adding an excess Win55212-2 (1 μM), and specific binding was calculated by subtracting non-specific binding from the total binding obtained by adding the labeled ligand alone. The test compounds were dissolved in DMSO to the final concentration of DMSO of 0.1%. IC50 was determined from the proportion of the specifically-bound test compounds, and the Ki value of the test compounds was calculated from IC50 and Kd value of [^3 H]Win55212-2.

[4] = target: T2, cannabinoid peripheral type (CB2) receptor (Rattus norvegicus, UniProt Q9QZN9); experiment: Binding assay, cannabinoid peripheral type receptor (CB2), rat spleen cells, [3H]Win55212-2; conditions: for C/S: ratio of Ki central receptor (C) to Ki peripheral receptor (S)
T2 construct: rat cerebellar membrane fraction and spleen cells were respectively used; from tissue; host or cells: rat spleen cells (male SD rats, 7-9 weeks old)
T2 sequence (Q9QZN9 1-360): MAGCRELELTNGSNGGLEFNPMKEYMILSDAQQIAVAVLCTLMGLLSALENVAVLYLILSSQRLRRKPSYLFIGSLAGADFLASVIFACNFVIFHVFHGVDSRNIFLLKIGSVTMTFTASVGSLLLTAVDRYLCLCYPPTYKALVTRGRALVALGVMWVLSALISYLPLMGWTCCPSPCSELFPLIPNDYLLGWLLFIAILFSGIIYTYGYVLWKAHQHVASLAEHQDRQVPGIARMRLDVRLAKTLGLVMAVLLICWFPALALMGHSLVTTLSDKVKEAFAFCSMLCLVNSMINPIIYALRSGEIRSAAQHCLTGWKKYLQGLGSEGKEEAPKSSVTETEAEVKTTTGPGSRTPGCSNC
Method: as §2, §3

[5] = rat spleen cells, [3H]Win55212-2 2 nM, 4° C. 360 min, read-out: Ki value, Peripheral receptor (S)
[6] = rat cerebellar membrane fraction, [3H]Win55212-2 2 nM, 30° C. 90 min, read-out: Ki value, Central receptor (C)

T1 sequence (P20272 whole entry): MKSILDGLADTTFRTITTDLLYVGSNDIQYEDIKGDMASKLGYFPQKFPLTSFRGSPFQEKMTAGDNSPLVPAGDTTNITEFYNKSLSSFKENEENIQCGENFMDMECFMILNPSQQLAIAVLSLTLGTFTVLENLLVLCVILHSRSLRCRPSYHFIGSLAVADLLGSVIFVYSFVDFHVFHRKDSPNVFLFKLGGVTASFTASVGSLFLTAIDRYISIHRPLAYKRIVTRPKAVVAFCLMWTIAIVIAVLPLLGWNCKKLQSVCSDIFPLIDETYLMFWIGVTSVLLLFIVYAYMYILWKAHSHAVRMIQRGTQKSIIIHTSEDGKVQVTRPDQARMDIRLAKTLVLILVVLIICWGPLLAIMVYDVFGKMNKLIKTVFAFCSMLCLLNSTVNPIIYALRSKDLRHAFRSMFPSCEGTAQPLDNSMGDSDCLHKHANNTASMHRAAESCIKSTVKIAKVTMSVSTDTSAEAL

SMILES | ED50 [1] [mg/kg] | ED50 [2] [mg/kg] | Ki [3] [nM] | C/S [4] | Ki [4, 5] [nM] | Ki [3, 6] [nM] | Ki ([3]; read-out: Ki value, Central receptor (C), rat cerebellar membrane fraction, [3H]Win55212-2 2 nM, 30° C. 90 min) [nM] | Ki [4] [nM]
CCCCCOc1cc(/C=C/C(=O)NCCc2ccc(O)cc2)ccc1OC [Example 1-1] | 1 | 1.52 | 230 | 48 | – | – | – | –
CCCCCOc1cc(/C=C/C(=O)NCCc2ccc(O)cc2)ccc1OCC [Example 1-2] | > 1 | 0.48 | 400 | 222 | 1.8 | – | – | –
CCCCOc1cc(/C=C/C(=O)NCCc2ccc(O)cc2)ccc1OC [Example 1-4] | 0.55 | 0.71 | 960 | 125 | 7.7 | – | – | –
CCCCCOc1cc(/C=C/C(=O)N[C@@H](Cc2ccc(O)cc2)C(=O)OC)ccc1OC [Example 1-22] | 0.14 | 0.77 | 480 | 343 | 1.4 | – | – | –
CCCCCSc1cc(/C=C/C(=O)NCCc2ccc(O)cc2)ccc1OC [Example 1-34, N-[2-(4-hydroxyphenyl)ethyl]-3-(4-methoxy-3-pentylthiophenyl)acrylamide] | 0.59 | 1.95 | 930 | 845 | – | – | – | –
CCCCCNc1cc(/C=C/C(=O)NCCc2ccc(N)cc2)ccc1OC [Example 1-35, N-[2-(4-aminophenyl)ethy]-3-(4methoxy-3-pentylaminophenyl)-acrylamide] | 0.12 | 0.063 | 160 | 16 | 10 | – | – | –
CCCCCOc1cc(C(=O)NCCc2ccc(O)cc2)ccc1OC [Example 2-1, N-[2-(4-hydroxyphenyl)ethyl]-(4-methoxy-3-pentyloxy)benzamide] | 0.04 | 0.14 | – | 560 | – | 1400 | – | –
CCCCCOc1cc(C(=O)NCCc2ccc(O)cc2)ccc1OCC [Example 2-2] | 0.51 | 0.9 | 1100 | 1000 | 1.1 | – | – | –
CCCCCOc1ccc(C(=O)NCCc2ccc(O)cc2)cc1OCCCCC [Example 2-3] | 0.17 | 0.053 | > 3300 | > 8250 | – | – | – | –
CCCCCNc1cc(C(=O)NCCc2ccc(O)cc2)ccc1OC [Example 2-6] | 0.3 | 0.72 | – | 455 | 1.1 | – | 500 | –
CCCCOc1cc(C(=O)NCCc2ccc(O)cc2)ccc1OC [Example 2-7] | 2.28 | 2.35 | > 2500 | 263 | 9.5 | – | – | –
CCCCCCOc1cc(C(=O)NCCc2ccc(O)cc2)ccc1OC [Example 2-8] | 0.73 | 1.45 | 1000 | 270 | 3.7 | – | – | –
CCCCCOc1cc(C(=O)NCCc2cccc(O)c2)ccc1OC [Example 2-13] | 3.2 | 5.6 | 5600 | 849 | 6.6 | – | – | –
CCCCCOc1cc(C(=O)NCCc2ccncc2)ccc1OC [Example 2-16] | 1.1 | 1.95 | – | > 59 | – | > 4300 | – | –
CCCCCOc1cc(C(=O)NC2CCc3cc(O)c(O)cc3C2)ccc1OC (stereo not drawn) [Example 2-26] | > 10 | 3.75 | > 2500 | > 139 | – | – | – | –
CCCCCOc1ccc(C(=O)NCCc2ccc(N)cc2)cc1SCCCCC [Example 2-52, N-[2-(4-aminophenyl)ethyl]4-pentyloxy-3-pentylthiobenzamide] | 1.85 | 0.58 | > 4300 | > 2300 | – | – | – | –
CCCCCOc1c(OC)ccc(C2=NC(C)(C)CO2)c1CO [Example 6-4] | 0.25 | 10 | 650 | 59 | 11 | – | – | –
CCCCCOc1c(OC)ccc2c1C(=O)N(CCc1ccc(O)cc1)C2=O [Example 7-4, 2-[2-(4-hydroxyphenyl)ethyl]-5-methoxy-4-pentyloxyisoindole-1,3-dione] | 1.6 | 1.6 | – | 137 | – | 1000 | – | –
CCCCCOc1c(OC)ccc2c1CN(CCc1ccc(O)cc1)C2=O [Example 7-5, 2-[2-(4-hydroxyphenyl)ethyl]-5-methoxy-4-pentyloxy-2,3-dihydroisoindol-1-one] | 0.014 | 0.038 | > 2500 | > 227 | – | – | – | –
CCCCCOc1c(OC)ccc2c(=O)n(CCc3ccc(O)cc3)ccc12 [Example 7-19-1] | 0.092 | 0.033 | – | 54 | – | 200 | – | –
CCCCCOc1c(OC)ccc2c(=O)n(CCc3ccncc3)ccc12 [Example 7-20] | 0.195 | 0.084 | – | 48 | – | 400 | – | –
CCCCCOc1c(OC)ccc2c1CCN(CCc1ccc(O)cc1)C2=O [Example 7-24, 2-[2-(4-hydroxyphenyl)ethyl]-6-methoxy-5-pentyloxy-3,4dihydro-2H-isoquinolin-1-one] | 0.028 | 0.027 | > 2500 | > 1389 | – | – | – | –
CCCCCOc1ccc2c(c1OCCCCC)CN(CCc1ccc([N+](=O)[O-])cc1)C2=O [Example 7-30, 4,5-dipentyloxy-2-[2-(4-nitrophenyl)ethyl]-2,3-dihydroisoindol-1-one] | < 0.01 | 0.021 | 2600 | 1440 | 1.8 | – | – | –
CCCCCNc1c(OC)ccc2c1CN(CCc1ccc(O)cc1)C2=O [Example 7-31, 2-[2-(4-hydroxyphenyl)ethyl]-5-methoxy-4-pentylamino-2,3-dihydroindol-1-one] | 0.012 | 0.08 | 11 | 125 | – | – | – | –
CCCCCOc1ccc2c(c1OCCCCC)CN(CCc1ccc(N)cc1)C2=O [Example 7-34, 2-[2-(4-aminophenyl)ethyl]-4,5-bispentyloxy-2,3-dihydroisoindol-1-one] | 0.29 | 0.012 | 330 | 3000 | – | – | – | –
CCCCCOc1c(OC)ccc2c1CN(CCc1ccc(N)cc1)C2=O [Example 7-37, 2-[2-(4-aminophenyl)ethyl]-5-methoxy-4-pentyloxy-2,3-dihydroisoindol-1-one] | 0.49 | 0.058 | – | 93 | – | 1300 | – | –
CCCCCOc1c(OC)ccc2c1CCN(CCc1ccc(N)cc1)C2=O [Example 7-38, hydrochloride] | 0.11 | 0.011 | 220 | 22 | – | – | – | 9.9
CCCCCOc1c(OC)ccc2c(=O)n(CCc3ccc(N)cc3)c(=O)[nH]c12 [Example 7-40, 3-[2-(4-aminophenyl)ethyl]-7-methoxy-8-pentyloxy-1H-quinazoline-2,4-dione] | 0.016 | – | 109 | > 30 | < 3.7 | – | – | –
CCCCCOc1cc(OC)ccc1/C=C/C(=O)N1CCOCC1 [Example 8-2, (E)-[3-(4-methoxy-2-pentyloxyphenyl)-1-oxo-2-propenyl]-4-morpholine] | 0.5 | > 10 | 560 | 67 | 8.4 | – | – | –

Reference: US6017919A, “Compounds and pharmaceutical use thereof” (Japan Tobacco Inc., priority 1996, dated 2000)
